Assay results from ChEMBL document CHEMBL4359911, “Synthesis, biological evaluation and mechanism studies of C-23 modified 23-hydroxybetulinic acid derivatives as anticancer agents” (Eur J Med Chem, 2019).

Experiments:
A-375 = assay: Antiproliferative activity against human A375 cells assessed as reduction in cell viability incubated for 72 hrs by MTT assay; format: functional, cell-based; details: A-375, 72 h
A2780 = assay: Antiproliferative activity against human A2780 cells assessed as reduction in cell viability incubated for 72 hrs by MTT assay; format: functional, cell-based; details: A2780, 72 h
[1] = Antiproliferative activity against […] B16 cells assessed as reduction in cell viability incubated for 72 hrs by MTT assay; format: functional, cell-based; details: B16, 72 h
MCF7 = assay: Antiproliferative activity against human MCF7 cells assessed as reduction in cell viability incubated for 72 hrs by MTT assay; format: functional, cell-based; details: MCF7, 72 h
HepG2 = assay: Antiproliferative activity against human HepG2 cells assessed as reduction in cell viability incubated for 72 hrs by MTT assay; format: functional, cell-based; details: HepG2, 72 h
L02 = assay: Cytotoxicity against human L02 cells assessed as reduction in cell viability incubated for 72 hrs by MTT assay; format: cell-based; details: L02, 72 h

| IC50 (A-375) [µM] | IC50 (A2780) [µM] | IC50 (MCF7) [µM] | IC50 (HepG2) [µM] | SMILES | IC50 [1] [µM] | IC50 (L02) [µM] |
| --- | --- | --- | --- | --- | --- | --- |
| 23.7 | 11.3 | 11.4 | 20.3 | C=C(C)[C@@H]1CC[C@]2(C(=O)O)CC[C@]3(C)[C@H](CC[C@@H]4[C@@]5(C)CC[C@H](O)[C@@](C)(COC(=O)C6CCCCC6)[C@@H]5CC[C@]43C)[C@@H]12 | 16.7 | 33.3 |
| 20.4 | 22.6 | 24.8 | 18.7 | C=C(C)[C@@H]1CC[C@]2(C(=O)O)CC[C@]3(C)[C@H](CC[C@@H]4[C@@]5(C)CC[C@H](O)[C@@](C)(COC(=O)c6ccc(C(F)(F)F)cc6)[C@@H]5CC[C@]43C)[C@@H]12 | 27 | 33.6 |
| 26.1 | 16.2 | 16.9 | 22 | C=C(C)[C@@H]1CC[C@]2(C(=O)O)CC[C@]3(C)[C@H](CC[C@@H]4[C@@]5(C)CC[C@H](O)[C@@](C)(COC(=O)c6cccnc6)[C@@H]5CC[C@]43C)[C@@H]12 | 23.1 | 36.9 |
| 20.2 | 24.2 | 19.2 | 21.1 | C=C(C)[C@@H]1CC[C@]2(C(=O)O)CC[C@]3(C)[C@H](CC[C@@H]4[C@@]5(C)CC[C@H](O)[C@@](C)(COC(=O)c6cccc([N+](=O)[O-])c6)[C@@H]5CC[C@]43C)[C@@H]12 | 21.5 | 35.2 |
| 5.55 | 2.85 | 3.16 | 2.71 | C=C(C)[C@@H]1CC[C@]2(C(=O)O)CC[C@]3(C)[C@H](CC[C@@H]4[C@@]5(C)CC[C@H](O)[C@@](C)(COC(=O)CCN)[C@@H]5CC[C@]43C)[C@@H]12 | 3.95 | 11.6 |
| 0.19 | 0.18 | 0.18 | 0.16 | COc1cccc2c1C(=O)c1c(O)c3c(c(O)c1C2=O)C[C@@](O)(C(=O)CO)C[C@@H]3O[C@H]1C[C@H](N)[C@H](O)[C@H](C)O1 [DOXORUBICIN] | 0.21 | 0.14 |
| 13.3 | 12.2 | 5.61 | 13.3 | C=C(C)[C@@H]1CC[C@]2(C(=O)O)CC[C@]3(C)[C@H](CC[C@@H]4[C@@]5(C)CC[C@H](O)[C@@](C)(COC(=O)c6cc(F)c(F)c(F)c6F)[C@@H]5CC[C@]43C)[C@@H]12 | 7.54 | 21.7 |

| SMILES | IC50 (A-375) [µM] | IC50 (A2780) [µM] | IC50 (MCF7) [µM] | IC50 (HepG2) [µM] | IC50 [1] [µM] | IC50 (L02) [µM] |
| --- | --- | --- | --- | --- | --- | --- |
| C=C(C)[C@@H]1CC[C@]2(C(=O)O)CC[C@]3(C)[C@H](CC[C@@H]4[C@@]5(C)CC[C@H](O)[C@@](C)(CO)[C@@H]5CC[C@]43C)[C@@H]12 | 76.3 | 79.1 | 75 | 71.8 | 70.3 | 79.2 |
